# Columns and labels:
# [1] = tested on: RA FLS; assay: RA FLS induction of gene expression in response to TNF and IL-1β (qPCR, ELISA); assay type: cell-based, human; details: for TNF- and IL-1-induced production of CXCL10 / TNF- and IL-1-induced production of IL6 / TNF- and IL-1-induced production of MMP13: 50 ng/ml TNFα or 2 ng/ml IL-1β with inhibitor for 24 hr
# Description: FLS were obtained from the UCSD CTRI Biorepository. Each line was previously obtained from discarded synovial tissue of a different patient with RA at the time of synovectomy, as described previously (21). The diagnosis of RA conformed to American College of Rheumatology 1987 revised criteria(22). FLS were cultured in DMEM (Mediatech, Manassas, Va.) with 10% fetal bovine serum (FBS, Omega Scientific, Tarzana, Calif.), 2 mM L-glutamine, […] gentamicin, 100 units/ml of penicillin and […] streptomycin (Life Technologies, Carlsbad, Calif.) at 37° C. in a humidified 5% CO2 atmosphere. For all experiments, FLS were used between passages 4-10, and cells were synchronized in 0.1% FBS (serum-starvation media) for 48 hours prior to analysis or functional assays.
# RNA was extracted using RNeasy Kits (Qiagen, Valencia, Calif.) or Trizol (Life Technologies). For lysis of FLS, adherent cells were first washed in PBS and then lysed in the culture plate. cDNA was synthesized using the SuperScript® III First-Strand Synthesis SuperMix (Life Technologies). qPCR was performed using a Roche Lightcycler 480 (Indianapolis, Ind.), with primer assays from SABiosciences/Qiagen. Reactions were measured in triplicate and data was normalized to the expression levels of the house-keeping gene glyceraldehyde 3-phosphate dehydrogenase (GAPDH) or RNA Polymerase II (RPII) (23).
# (§1) FLS were treated with 2.5 uM PMO (Gene Tools, Philomath, OR) for 7 days. PMO was replaced in fresh culture medium after 3 days and in serum-starvation medium after 5 days.
# Secreted human IL-6 and chemokine (C-X-C motif) ligand 10 (CXCL10) were measured using ELISAs from Biolegend (San Diego, Calif.).
# [2] = tested on: RA FLS; details: reference (40); cited from earlier work
# [3] = tested on: RA FLS; assay: Death of RA FLS on treatment with FAK inhibitor; assay type: cell-based, human; details: at the concentrations used in these experiments
# [4] = tested on: RA FLS; assay: Western blotting of RA FLS lysates (SRC, FAK, MAPK, AKT, NF-κB signaling); assay type: cell-based, human; details: 10 μM inhibitor vs DMSO
# [5] = tested on: RA FLS; assay: Survival and apoptosis assay (Annexin V / PI, FACS); assay type: cell-based, human; details: sera-starvation media or in the presence of PDGF (50 ng/ml, 24 hr); FIG. 2C
# Description: as §1
# Following treatment with PMO, RA FLS were washed and incubated for an additional 24 hoursr in serum-starvation media. Adherent and non-adherent cells were collected and stained with Annexin V-Alexa Fluor® 647 and propidium iodide (PI) according to the manufacturer's instructions (Biolegend, San Diego, Calif.). Cell fluorescence was assessed by FACS using a BD LSR-II (BD Biosciences), and counts and percentages of live (Annexin V−PI−), early apoptotic (Annexin V+PI−), or late apoptotic/necrotic (Annexin V+PI+) cells were obtained. Data was analyzed for statistical significance using the Chi-square test for independence.
# [6] = tested on: RA FLS; assay: Spreading and adhesion assay on fibronectin-coated coverslips; assay type: cell-based, human; details: 5% FBS, FIG. 2D
# Description: as §1
# Following treatment with PMO, equal numbers of live RA FLS were re-suspended in FLS medium containing 5% FBS and allowed to adhere onto coverslips coated with 20 μg/ml fibronectin (FN) at 37° C. for 15, 30 and 60 minutes. Cells were fixed in 4% para-formaldehyde for 5 minutes, permeabilized in 0.2% Triton X-100 for 2 minutes, and stained with 5 U/ml Alexa Fluor® 568 (AF 568)-conjugated phalloidin and 2 μg/ml Hoechst for 20 minutes (Life Technologies). Samples were imaged with an Olympus FV10i Laser Scanning Confocal Microscope (Olympus, Center Valley, Pa.). Using the FV10i acquisition software, each coverslip was separated into four nine-paneled mega-images. Each panel (1024×1024) was acquired with a 10× objective and then stitched together, through a 10% overlap, with the Olympus FluoView 1000 imaging software. Total cell number and cell areas for each panel were calculated using Image Pro Analyzer software (Media Cybernetics, Rockville, Md.).
# [7] = tested on: RA FLS; assay: Western blotting of RA FLS lysates (SRC, FAK, MAPK, AKT, NF-κB signaling); assay type: cell-based, human
# Description: as §1
# Adherent cells were washed in PBS and then lysed in the culture plate in RIPA buffer (25 mM Tris-HCl pH 7.6, 150 mM NaCl, 1% NP-40, 1% sodium deoxycholate, 0.1% SDS) containing 1 mM phenylmethanesulfonyl fluoride, 10 ng/ml aprotinin, 10 μg/ml leupeptin, 10 μg/ml soybean trypsin inhibitor, 10 mM sodium orthovanadate, 5 mM sodium fluoride and 2 mM sodium pyrophosphate. Protein concentration of cell lysates was determined using the Pierce BCA Protein Assay Kit (Thermo Scientific, Rockford, Ill.).
# [8] = 2.5 μM PMO for 7 d, then 2 ng/ml IL-1β for 24 hr, vs Ctl PMO, FIG. 1D
# [9] = 2.5 μM PMO for 7 d, then 50 ng/ml TNF for 24 hr, vs Ctl PMO, FIG. 1D
# [10] = RA FLS, 2.5 μM PMO for 7 d, FIG. 1D
# [11] = RA FLS, RPTPα knockdown with PMO, FIG. 3B, 3C
# [12] = basal conditions, PTPRA knockdown
# [13] = unstimulated PMO-treated RA FLS, FIG. 3D
# [14] = 2.5 μM PTPRA_2 PMO for 7 d, then 50 ng/ml TNF or 2 ng/ml IL-1 for 24 hr, FIGS. 8A-8B
compound,measurement,setting,value
"NC1(c2ccc(-c3nc4ccn5c(=O)[nH]nc5c4cc3-c3ccccc3)cc2)CCC1 [MK2206, reference compound]",IL-1β-induced expression of CXCL10,"[1]; RA FLS, 2 ng/ml IL-1β with inhibitor for 24 hr, vs DMSO, qPCR, FIG. 4A",increased
same,TNF- and IL-1-induced production of CXCL10,"[1]; RA FLS, vs DMSO, qPCR, FIG. 4A",did not dampen
same,TNF- and IL-1-induced production of IL6,"[1]; RA FLS, vs DMSO, qPCR, FIG. 4A",increased
same,TNF- and IL-1-induced production of MMP13,"[1]; RA FLS, vs DMSO, qPCR, FIG. 4A",did not dampen
same,RA FLS migration and invasiveness,[2],attenuate
CS(=O)(=O)c1cccc(CNc2nc(Nc3ccc4c(c3)CCC(=O)N4)ncc2C(F)(F)F)c1 [PF573228],TNF- and IL-1-induced production of CXCL10,"[1]; RA FLS, vs DMSO, qPCR, FIG. 4A",significantly decreased
same,TNF- and IL-1-induced production of IL6,"[1]; RA FLS, vs DMSO, qPCR, FIG. 4A",significantly decreased
same,TNF- and IL-1-induced production of MMP13,"[1]; RA FLS, vs DMSO, qPCR, FIG. 4A",significantly decreased
same,death of RA FLS,[3],does not cause death
same,p38-T180/Y185 phosphorylation,[4]; 50 ng/ml TNF or 2 ng/ml IL-1β for 30 min,no effect
same,TNF- and IL-1β-induced phosphorylation of JNK-T183/Y185,"[4]; 50 ng/ml TNF or 2 ng/ml IL-1β for 30 min, FIG. 4B",impaired
same,FAK-Y397 phosphorylation,[4]; FIG. 4B,impaired
"PTPRA PMO: cell-permeable antisense morpholino oligo (PMO) targeting PTPRA; probably SEQ ID NO:4, 5′ GACATTAAGGAATGCCTTACCCACA 3′ (assignment not stated) (morpholino, cell-permeable, chemistry not fully specified)",RA FLS production of CXCL10 in response to IL-1β,[1]; [8],significantly reduced
same,RA FLS production of IL6 in response to IL-1β,[1]; [8],significantly reduced
same,RA FLS production of MMP3 in response to IL-1β,[1]; [8],significantly reduced
same,RA FLS production of MMP13 in response to IL-1β,[1]; [8],significantly reduced
same,RA FLS production of CXCL10 in response to TNF,[1]; [9],significantly reduced
same,RA FLS production of MMP13 in response to TNF,[1]; [9],significantly reduced
same,expression of IL-1β receptor (IL1R),[1]; [10],increased
same,expression of TNF receptor (TNFRSF1A),[1]; [10],no effect
same,apoptosis compared to control-treated cells,[5],significantly increased
same,spreading on fibronectin-coated coverslips,"[6]; cell area after 15, 30 and 60 min",impaired spreading
same,adherence of live cells to fibronectin-coated coverslips,[6]; cells per field after 15 min,less adherent
same,TNF- and IL-1β stimulated phosphorylation of AKT-S473,"[7]; RA FLS, PMO treatment, FIGS. 3B-3C",reduced
same,TNF- and IL-1β-stimulated phosphorylation of JNK (T183/Y185),[7]; [11],impaired
same,TNF- and IL-1β-stimulated phosphorylation of p38-T180/Y182,[7]; [11],impaired
same,phosphorylation of FAK-Y397,"[7]; RA FLS, RPTPα knockdown with PMO, FIG. 3C",reduced
same,proteolytic processing of NFκB subunit p100 (ratio of p52:p100),[7]; [12],unaffected
same,proteolytic processing of NFκB subunit p105 (ratio of p50:p105),[7]; [12],unaffected
same,phosphorylation of SRC-Y527,"[7]; resting RA FLS, RPTPα knockdown with PMO, FIG. 3A",increased
same,"levels of IκBα following 10 minutes post-stimulation, Ctl vs PTPRA PMO-treated cells","[7]; stimulation with TNF or IL-1β, FIG. 3B, 3C",similar
same,basal phosphorylation of IκB kinase (IKK)-αβ on Ser176/180,[7]; [13],non-significant trend towards decreased
same,basal phosphorylation of NFκB subunit p65 on Ser536,[7]; [13],non-significant trend towards decreased
same,levels of IκBα protein in resting RA FLS,"[7]; unstimulated, PMO treatment",modest decrease
"second PTPRA-targeted PMO: second PTPRA-targeted PMO of a different sequence; probably SEQ ID NO:5, 5′ GTGTCTCATCTGAAATCAAGACAAC 3′ (assignment not stated) (morpholino, cell-permeable, chemistry not fully specified)","effect on CXCL10 (reduced production, protein in supernatants by ELISA)",[1]; [14],confirmed
same,"effect on IL-6 (reduced production, protein in supernatants by ELISA)",[1]; [14],confirmed

# From patent US10604585B2, “Modulation of PTPRA to treat arthritis” (La Jolla Institute for Allergy & Immunology, priority 2014, dated 2020)
